From patent publication US20180071317A1, “USE OF AGENTS THAT ALTER THE PERITUMORAL ENVIRONMENT FOR THE TREATMENT OF CANCER” (SERVICIO ANDALUZ DE SALUD, priority 2011, published 2018)

Key:
[1] = tested on: fibroblasts (PHF) co-cultured with tumor cells of human gastric adenocarcinoma (23132/87); test: Marker expression (IHC) in PHF co-cultured with 23132/87 tumor cells; format: cell-based; settings: co-culture with 23132/87; SP 1 μM + antagonist 1 μM; 48 h;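 also: cultures grown in fresh plasma from a healthy human donor, values give the percentage of PHF fibroblasts positive for the marker, each experiment run in six replicates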
[2] = tested on: fibroblasts (PHF) co-cultured with tumor cells of human pancreatic adenocarcinoma (CAPAN-1); test: Marker expression (IHC) in PHF co-cultured with CAPAN-1 tumor cells; format: cell-based; settings: co-culture with CAPAN-1; SP 1 μM + antagonist 1 μM; 48 h;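 also: cultures grown in fresh plasma from a healthy human donor, run in six replicates, value is percent of fibroblasts positive for each marker, compared with fibroblasts cultured alone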
Description: All cultures were maintained 48 hours, following which the same cells were included in paraffin blocks for subsequent analysis of the expression of different markers by immunohistochemistry (see Example 1). The primary antibodies used to perform immunohistochemical assays and their concentration are detailed in Example 2. All experiments were carried out sixfold. Analyzed markers in fibroblast cells (stromal cells) were: TGF-α, TGF-β1, TGF-β2, TGF-β3, SPARC, MMP-3, MMP-7, MMP-9, MMP-11, MMP-13 and MMP-14.

[3] = tested on: fibroblasts (PHF) co-cultured with tumor cells of human breast carcinoma (MCF-7); test: Marker expression (IHC) in PHF co-cultured with MCF-7 tumor cells; format: cell-based; settings: co-culture with MCF-7; SP 1 μM + antagonist 1 μM; 48 h;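 also: value is the percentage of fibroblasts positive for each marker, with fibroblasts cultured alone as reference, grown in fresh plasma from a healthy donor, six replicates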
Description: (§1) All cultures were maintained 48 hours, following which the same cells were included in paraffin blocks for subsequent analysis of the expression of different markers by immunohistochemistry (see Example 1). […] All experiments were carried out sixfold. Analyzed markers in fibroblast cells (stromal cells) were: TGF-α, TGF-β1, TGF-β2, TGF-β3, SPARC, MMP-3, MMP-7, MMP-9, MMP-11, MMP-13 and MMP-14.

[4] = tested on: fibroblasts (PHF) co-cultured with tumor cells of human cervix carcinoma (KB); test: Marker expression (IHC) in PHF co-cultured with KB tumor cells; format: cell-based; settings: co-culture with KB; SP 1 μM + antagonist 1 μM; 48 h;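 also: percentage of PHF fibroblasts showing expression of each marker, cultured in fresh blood plasma from a healthy human donor, six replicates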
Description: as §1

[5] = tested on: fibroblasts (PHF) co-cultivated with tumor cell carcinoma of urinary bladder (5637); test: Marker expression (IHC) in PHF co-cultured with 5637 tumor cells; format: cell-based, human; settings: co-culture with 5637; SP 1 μM + antagonist 1 μM; 48 h
Description: as §1

[6] = tested on: fibroblasts of tumors produced by human rhabdomyosarcoma tumor line (A-204); test: Marker expression (IHC) in fibroblasts of tumor or peritumoral area, mouse model, A-204; format: in vivo; settings: A-204 tumors in mice, 30 mg/kg/day oral, 7 days
Description: In vitro tests conducted in Example 5 are now carried out in an experimental model in mice in vivo. […] Subsequently, the expression in fibroblasts tumoral and peritumoral area of molecular markers associated with progression and maintenance of tumors: TGF-α, TGF-β1, TGF-β2, TGF-β3, MMP-7, MMP-11, MMP-14 were analyzed by immunohistochemistry.
Were injected with 2×10^7 cells tumors (corresponding, in each case to each of the tumor types as specified in Table 9) in 200 of PBS subcutaneously μl. […] Mice were randomized into two groups when the tumors reached a volume of 75 mm^3 One group was treated with non-peptide receptor antagonists NK1 and the other with placebo 200μ1. […] Tumors and samples of non-neoplastic stromal areas remote from the tumor were halved, formalin fixed (4%) and then were included in paraffin blocks for analysis by immunohistochemistry.
The expression on fibroblast cells obtained in the animal model was analyzed by immunohistochemistry, of the above markers: TGF-α, TGF-β1, TGF-β2, TGF-β3, MMP-7, MMP-1 1, MMP-14MP-14. Tables 32 to 35 depict the type of label used and the average percentage of fibroblasts present in non-tumor areas, tumor and peritumoral (±SD) which were expressing the marker shown in each of the tumor types developed from of the different cell lines used. This process was realized in mice treated with non-peptide antagonists of NK1 receptor and in untreated animals (control).

[7] = tested on: tumors from the tumor cell lines of Table 9; test: Mean tumor volume in nude mice injected subcutaneously with human tumor cells; settings: 30 mg/kg/day oral, 7 days

C[C@@H](O[C@H]1OCCN(Cc2n[nH]c(=O)[nH]2)[C@H]1c1ccc(F)cc1)c1cc(C(F)(F)F)cc(C(F)(F)F)c1 [Aprepitant]
PHF cells expressing MMP-3 [1]: 0%
PHF cells expressing MMP-7 [1]: 0%
PHF cells expressing MMP-9 [1]: 0%
PHF cells expressing MMP-11 [1]: 0%
PHF cells expressing MMP-13 [1]: 0%
PHF cells expressing MMP-14 [1]: 0%
PHF cells expressing SPARC [1]: 0%
PHF cells expressing TGF-α [1]: 0%
PHF cells expressing TGF-β1 [1]: 0%
PHF cells expressing TGF-β2 [1]: 0%
PHF cells expressing TGF-β3 [1]: 0%
PHF cells expressing MMP-3 [2]: 0%
PHF cells expressing MMP-7 [2]: 0%
PHF cells expressing MMP-9 [2]: 0%
PHF cells expressing MMP-11 [2]: 0%
PHF cells expressing MMP-13 [2]: 0%
PHF cells expressing MMP-14 [2]: 0%
PHF cells expressing SPARC [2]: 0%
PHF cells expressing TGF-α [2]: 0%
PHF cells expressing TGF-β1 [2]: 0%
PHF cells expressing TGF-β2 [2]: 0%
PHF cells expressing TGF-β3 [2]: 0%
PHF cells expressing MMP-3 [3]: 0%
PHF cells expressing MMP-7 [3]: 0%
PHF cells expressing MMP-9 [3]: 0%
PHF cells expressing MMP-11 [3]: 0%
PHF cells expressing MMP-13 [3]: 0%
PHF cells expressing MMP-14 [3]: 0%
PHF cells expressing SPARC [3]: 0%
PHF cells expressing TGF-α [3]: 0%
PHF cells expressing TGF-β1 [3]: 0%
PHF cells expressing TGF-β2 [3]: 0%
PHF cells expressing TGF-β3 [3]: 0%
PHF cells expressing MMP-3 [4]: 0%
PHF cells expressing MMP-7 [4]: 0%
PHF cells expressing MMP-9 [4]: 0%
PHF cells expressing MMP-11 [4]: 0%
PHF cells expressing MMP-13 [4]: 0%
PHF cells expressing MMP-14 [4]: 0%
PHF cells expressing SPARC [4]: 0%
PHF cells expressing TGF-α [4]: 0%
PHF cells expressing TGF-β1 [4]: 0%
PHF cells expressing TGF-β2 [4]: 0%
PHF cells expressing TGF-β3 [4]: 0%
PHF cells expressing MMP-3 [5]: 0%
PHF cells expressing MMP-7 [5]: 0%
PHF cells expressing MMP-9 [5]: 0%
PHF cells expressing MMP-11 [5]: 0%
PHF cells expressing MMP-13 [5]: 0%
PHF cells expressing MMP-14 [5]: 0%
PHF cells expressing SPARC [5]: 0%
PHF cells expressing TGF-α [5]: 0%
PHF cells expressing TGF-β1 [5]: 0%
PHF cells expressing TGF-β2 [5]: 0%
PHF cells expressing TGF-β3 [5]: 0%
fibroblasts expressing MMP-7 [6]: 0%
fibroblasts expressing MMP-11 [6]: 0%
fibroblasts expressing MMP-14 [6]: 0%
fibroblasts expressing TGF-α [6]: 0%
fibroblasts expressing TGF-β 1 [6]: 0%
fibroblasts expressing TGF-β 2 [6]: 0%
fibroblasts expressing TGF-β 3 [6]: 0%
Mean tumor volume ([7]; B lymphoblastic leukemia (peripheral human B lymphoblastoid cells) SD1): 103 ± 8
Mean tumor volume ([7]; Carcinoma of human non-small cell lung COR-L23): 102 ± 5
Mean tumor volume ([7]; Carcinoma of human non-small cell lung H-1963): 98 ± 5
Mean tumor volume ([7]; Carcinoma of human non-small cell lung HCC-44): 105 ± 7
Mean tumor volume ([7]; Carcinoma of human small cell lung H-209): 104 ± 6
Mean tumor volume ([7]; Carcinoma of human urinary bladder 5637): 102 ± 4
Mean tumor volume ([7]; Human B lymphoma BC-1): 108 ± 5
Mean tumor volume ([7]; Human Burkitt lymphoma CA-46): 109 ± 7
Mean tumor volume ([7]; Human Fibrosarcoma HT-1080): 100 ± 4
Mean tumor volume ([7]; Human Hodgkin lymphoma KM-H2): 101 ± 5
Mean tumor volume ([7]; Human Rhabdomyosarcoma A-204): 102 ± 8
Mean tumor volume ([7]; Human T-cell leukemia/NK YT): 106 ± 6
Mean tumor volume ([7]; Human T-lymphoma DERL human Hodgkin 7Linfoma KM-H2): 105 ± 6
Mean tumor volume ([7]; Human breast adenocarcinoma humano MCF-7): 95 ± 6
Mean tumor volume ([7]; Human breast carcinoma MDA-MB-468): 99 ± 7
Mean tumor volume ([7]; Human breast carcinoma MT-3): 109 ± 2
Mean tumor volume ([7]; Human choriocarcinoma AC-1M32): 112 ± 4
Mean tumor volume ([7]; Human colon carcinoma SW-403): 79 ± 4
Mean tumor volume ([7]; Human endometrial carcinoma AN3-CA): 90 ± 4
Mean tumor volume ([7]; Human endometrial stromal sarcoma ESS-1): 107 ± 4
Mean tumor volume ([7]; Human folicular thyroid carcinoma TT2609-C02): 105 ± 7
Mean tumor volume ([7]; Human gastric adenocarcinoma 23132/87): 77 ± 6
Mean tumor volume ([7]; Human glioma GAMG): 108 ± 8
Mean tumor volume ([7]; Human lung carcinoma A-427): 104 ± 4
Mean tumor volume ([7]; Human lung carcinoma DV-90): 97 ± 3
Mean tumor volume ([7]; Human lymphoblastic leukemia T BE-13): 102 ± 6
Mean tumor volume ([7]; Human malignant fibrous histiocytoma U-2197): 102 ± 6
Mean tumor volume ([7]; Human melanoma MEL HO): 104 ± 5
Mean tumor volume ([7]; Human multiple myeloma COLO-677): 102 ± 6
Mean tumor volume ([7]; Human neuroblastoma KELLY): 105 ± 6
Mean tumor volume ([7]; Human neuroblastoma bone marrow SKN-BE 2): 97 ± 9
Mean tumor volume ([7]; Human osteosarcoma CAL-72): 112 ± 4
Mean tumor volume ([7]; Human ovarian adenocarcinoma EFO-27): 98 ± 7
Mean tumor volume ([7]; Human ovarian carcinoma COLO-704): 101 ± 7
Mean tumor volume ([7]; Human pancretic adenocarcinoma CAPAN-1): 86 ± 8
Mean tumor volume ([7]; Human pancretic adenocarcinoma PA-TU 8902): 102 ± 7
Mean tumor volume ([7]; Human papillary thyroid carcinoma metastasizing B-CPAP): 102 ± 4
Mean tumor volume ([7]; Human prostate carcinoma 22RV1): 103 ± 5
Mean tumor volume ([7]; Human retinoblastoma WERI-Rb-1): 99 ± 4
Mean tumor volume ([7]; Human thyroid carcinoma 8505C): 105 ± 3
Mean tumor volume ([7]; Human uterine cervix carcinoma KB): 103 ± 9
Mean tumor volume ([7]; Melanoma humano, metástasis en ganglio linfático COLO 858): 109 ± 4
Mean tumor volume ([7]; Sarcoma human Edwing MHH-ES-1): 103 ± 5
Mean tumor volume ([7]; Transitional Carcinoma of human urinary bladder RT-4): 102 ± 6
